Key:
flank organ = settings: topical application, graded doses, 5 days/week for 2 weeks; cited from earlier work
[1] = Solubility in formulation vehicles; format: physicochemical
Description: With regard to formulation for use with humans, because pregnenolone is insoluble in water, most aqueous base vehicles or carriers are not useful in the invention. Vehicles with a high content of alcohols, such as isopropanol or mixtures of alcohols with longer (C₄-C₁₀) alkane or alkene chains, in which pregnenolone is soluble, would afford a suitable base for the formulation as liquid, gel or cream. Glycerol may be added in the preparation as an emollient. Glycerol is hygroscopic; it keeps the skin surface from drying. Other additions of moisturizers or perfumes as known in the art are compatible with pregnenolone.

acne vulgaris = format: in vivo, human
Method: The following experiment was conducted and is a typical trial. In a double-blind clinical trial 23 patients with acne vulgaris volunteered to participate. Fifteen patients (11 females and 4 males) were given a 1% solution of pregnenolone dissolved in isopropanol containing 1% glycerol, and 8 patients (5 females and 3 males) were given a 1% solution of glycerol in isopropanol. Neither the patients nor the attending dermatologist knew whether or not the dispensed solution contained pregnenolone. The patients were instructed to stop using their previous medications for two weeks and then to apply the given solution to their faces twice daily. They were reexamined biweekly.

3βHSD = assay: In vivo metabolism of injected 1,2-3H-DHA in DHA-stimulated hamster flank organs after topical inhibitor; set-up: species or system Syrian Golden Hamsters; settings: female hamsters, pregnenolone topical for 3 days; 1 hour after intracardial ³H-DHA
Description: The effects of hormones and hormonally active substances on sebaceous glands can also be evaluated using the Syrian hamster flank organs as an animal model. The results of experiments using hamsters are valuable inasmuch as they can provide in vivo confirmation of the in vitro experiments like those described above using rat preputial gland. The flank organs, also called the costovertebral spot or the costovertebral organ, are sebaceous structures located on each flank of the animal. Like the sebaceous glands of the human and the preputial gland of the rate they are androgen dependent (Voigt and Hsia, 1973; Gomez and Frost, 1969; Frost and Gomez, 1973).
Hamster flank organs were accordingly used to test in vivo the androgenic inhibitory properties of pregnenolone.
Female Syrian Golden Hamsters were used in this experiment. […]
On the afternoon of day 3, an intracardial injection of 1,2-³H-DHA (5µCi/0.1 ml saline buffer solution) was given to both experimental groups anesthetized with ether. […] Each organ was then placed in a 16 mm x 150 mm test tube containing methanol and was homogenized, extracted and analyzed for steroid metabolites by separating the metabolites using thin layer chromatography as described above, scraping the thus separated metabolites from the thin layer plates, and quantitating using a scintillation counter. […]
Results are shown in Figure 2 expressed as DPM/mg tissue.

[2] = system: 3β-hydroxysteroid dehydrogenase Δ^4-5-isomerase (3βHSD); assay: Inhibition of 3βHSD conversion of 3H-DHA in rat preputial gland homogenate (TLC/scintillation counting); format: biochemical; settings: rat preputial gland homogenate, 1,2-³H-DHA with 100 nmoles DHA, 37°C; range of four separate incubations
Method: To assess the androgen inhibiting activity of pregnenolone, rat preputial gland was employed to investigate the in vitro androgenic action of DHA. […] A pair of the glands are situated in the prepuce of the rate of either sex weighing between 125-200 mg in an average 200 g rat, being slightly larger in the male animal. The animals employed were female Sprague-Dawley rats, 10-12 weeks old and weighing 225-300 g.
The experimental format, stated broadly, was to excise preputial glands from rats and prepare a homogenate therefrom. A predetermined amount of homogenate (the sample) was then spiked with radiolabeled (with ³H) DHA, in the presence or absence of pregnenolone, and the sample was incubated. […] The metabolites were quantitated by removal from the thin layer plate and counting in a scintillation counter. By determining the extent of metabolite formation, the extent of inhibition of 3βHSD could be correspondingly determined. […]
Experiments were initially conducted to ensure that DHA and its metabolites could be separated chromatographically. […] The position of the steroid can be readily traced with this method. […] Elution and quantitative evaluation of steroids can be effected after removal of the iodine. […] For quantitation the plates were then scraped in 1 cm sections for radioassay of ³H in a Packard Tri- Carb liquid scintillation counter. […]

flank organs = assay: Stimulation of female hamster flank organ growth by topical DHA; format: in vivo, female hamsters; settings: 12 µg, 60 µg, 120 µg applied to the right side, 7 days/week for 6 weeks
Method: Before testing the anti-androgenic properties of pregnenolone on hamster flank organs and relying on the results, a centrally important question therefore needed to be answered -- Could DHA be shown to stimulate growth in the flank organs? This question was answered by applying graded doses of DHA, 12 µg, 60 µg, 120 µg to the right side of female hamsters (5 hamsters/group), for 7 days/week for 6 weeks.

[3] = 1% pregnenolone in isopropanol containing 1% glycerol, face, twice daily, twelve weeks, 15 patients

## C[C@]12CCC(=O)C=C1CC[C@@H]1[C@@H]2CC[C@@]2(C)[C@H]1CC[C@]2(C)O [methyltestosterone]
Flank organ
  flank organ sebaceous gland growth and pigmentation: unilateral stimulation of sebaceous gland growth and pigmentation

## CC(=O)[C@H]1CC[C@H]2[C@@H]3CC=C4C[C@@H](O)CC[C@]4(C)[C@H]3CC[C@]12C [pregnenolone, Δ⁵-pregnene-3β-o1-20-one]
[1]; isopropanol or mixtures of alcohols with longer (C₄-C₁₀) alkane or alkene chains
  solubility in vehicles with a high content of alcohols: soluble
[1]; water
  solubility in water: insoluble
Acne vulgaris; [3]
  patients noted definite improvement, with reduction in the size and number of lesions: 33%
  patients noted no change in lesions or oiliness: 26%
  patients noted reduction of oiliness: 13%
  patients noted slight reduction of the number of lesions and a reduction in the oiliness of the skin: 26%
Acne vulgaris; 1% pregnenolone in isopropanol containing 1% glycerol, twelve weeks, 15 patients
  patients showed marked reductions in skin oiliness and in pore size: two
Acne vulgaris; claim of patients who had used other medications previously
  patients' comparison with other medications used previously: more effective and more acceptable
Acne vulgaris; human, in vivo
  irritation or discomfort caused by the topical application: no complaint
3βHSD
  formation of testosterone, DHT and androstanediol in flank organs, control versus treated: Control hamsters, not treated with inhibitor, show greater formation
[2]
  inhibition of the 3βHSD for DHA (Δ⁴-3-keto product formed, relative to absence of the inhibitor): 91-92%

## C[C@]12CCC(=O)C[C@@H]1CC[C@@H]1[C@@H]2CC[C@]2(C)[C@@H](O)CC[C@@H]12 [DHT, dihydrotestosterone]
Flank organ
  flank organ sebaceous gland growth and pigmentation: unilateral stimulation of sebaceous gland growth and pigmentation

## C[C@]12CC[C@H](O)C[C@@H]1CC[C@@H]1[C@@H]2CC[C@]2(C)C(=O)CC[C@@H]12 [epiandrosterone]
Flank organ
  flank organ sebaceous gland growth and pigmentation: did not cause flank organ growth or increased pigmentation

## C[C@]12CC[C@H](O)CC1=CC[C@@H]1[C@@H]2CC[C@]2(C)C(=O)CC[C@@H]12 [DHA, dehydroepiandrosterone]
Flank organs
  stimulation of flank organ growth: stimulation of both flank organs

## C[C@]12CC[C@H]3[C@@H](CCC4=CC(=O)CC[C@@]43C)[C@@H]1CC[C@@H]2O [testosterone]
Flank organ
  flank organ sebaceous gland growth and pigmentation: unilateral stimulation of sebaceous gland growth and pigmentation

## CC(=O)[C@H]1CC[C@H]2[C@@H]3CCC4=CC(=O)CC[C@]4(C)[C@H]3CC[C@]12C [progesterone]
Flank organ
  flank organ sebaceous gland growth and pigmentation: did not cause flank organ growth or increased pigmentation

## C[C@]12CCC(=O)C=C1CC[C@@H]1[C@@H]2CC[C@]2(C)C(=O)CC[C@@H]12 [androstenedione, Δ⁴-androstenedione]
Flank organ
  flank organ sebaceous gland growth and pigmentation: unilateral stimulation of sebaceous gland growth and pigmentation

## C[C@]12CC[C@@H](O)C[C@@H]1CC[C@@H]1[C@@H]2CC[C@]2(C)C(=O)CC[C@@H]12 [androsterone]
Flank organ
  flank organ sebaceous gland growth and pigmentation: did not cause flank organ growth or increased pigmentation
